35 compounds from patent US20250332173A1, “COMPOUNDS AND METHODS FOR MODULATING NUCLEIC ACID SPLICING” (REMIX THERAPEUTICS INC., priority 2021, published 2025) can be followed below.

Common to all, as to type: cell-based, human
One experiment relates to MYB. As to the kind of experiment: HiBiT protein abundance assay, MYB HiBiT K562 cell line. Conditions: HiBiT K562 cell line, 24 hours, top dose 10 μM; read-out: Effect on protein abundance, MYB (IC50 category). In outline: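 K562 knock-in lines with endogenous HiBiT-tagged target, 10,000 cells/well in IMDM + FBS, treated 24 h at 37° C with 10-point 3-fold dilutions (top 10 μM final; DMSO ≤0.25%). Lytic Nano-Glo HiBiT luminescence normalized to untagged K562 baseline and DMSO controls; IC50 = concentration giving 50% abundance via four-parameter fit.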

A further experiment deals with SMN2 mRNA. As to the kind of experiment: RT-qPCR splicing assay, SMN2 canonical junction (CJ) mRNA. Conditions: Homo sapiens; Table 5 panel; canonical junction qPCR; compound concentration having 50% response in CJ decrease; read-out: SMN2 IC50 (decrease in CJ mRNA levels). In outline: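 A673 or K562 cells were treated for 24 h at 37 °C with compound in 11-point 3-fold dilution (top 10 uM final, DMSO ≤0.25%). Lysates then went to one-step RT-qPCR measuring canonical-junction mRNA, normalized to GAPDH, GUSB or PPIA.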

Another experiment concerns Target C. As to the kind of experiment: HiBiT protein abundance assay, Target C (Promega Nano-Glo HiBiT Lytic Detection System, knock-in K562 cell line). Conditions: Homo sapiens, K562, 24 h, HiBiT K562 cell line, 24 hours, top dose 10 μM; read-out: Effect on protein abundance, Target C (IC50 category). In outline: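 Knock-in K562 cells carrying HiBiT-tagged Target C, 10,000 per well, treated 24 h at 37 °C with 10-point threefold dilutions (top 10 μM final, ≤0.25% DMSO). Lytic HiBiT luminescence read; response normalised to unmodified K562 and DMSO controls, four-parameter fit interpolated at 50% for IC50.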

On to `CN1CCC(n2cnc3cc(-c4cn[nH]c4)ccc3c2=O)CC1` [Compound 299], for which the IC50 in the experiment on MYB, in the experiment with SMN2 mRNA and in the experiment with Target C was over 10 µM in each case.
On to `Cc1nc2c(F)cc(-c3ccc4c(=O)n(C5CCN(C)CC5)cnc4c3)cc2o1` [Compound 300], for which the figures for the IC50 in the experiment on MYB, with SMN2 mRNA and with Target C were 0.1 to 1 µM, under 0.1 µM and 1 to 10 µM, respectively.
As to `Cc1nc2c(F)cc(-c3ccc4c(=O)n(C5CCN(C)CC5)cnc4c3)cc2s1` [Compound 301], the IC50 in the experiment on MYB, in the experiment with SMN2 mRNA and in the experiment with Target C was 1 to 10 µM throughout.
Take `Cc1cn2cc(-c3ccc4c(=O)n(C5CCN(C)CC5)cnc4c3)nc2c(C)n1` [Compound 302]: the IC50 was 1 to 10 µM in the experiment on MYB, 0.1 to 1 µM with SMN2 mRNA and 1 to 10 µM in the experiment with Target C.
On to `Cc1cn2nc(-c3ccc4c(=O)n(C5CCN(C)CC5)cnc4c3)cc2c(C)n1` [Compound 303], for which the IC50 with MYB lay within 1 to 10 µM; with SMN2 mRNA it was 0.1 to 1 µM; in the experiment with Target C, 1 to 10 µM.
For the compound `CC[C@@H]1C[C@H](n2ncc3cc(-c4cc(C)c5nc(C)cn5n4)ccc3c2=O)CCN1` [Compound 304], the IC50 in the experiment on MYB was 0.1 to 1 µM; in the experiment on SMN2 mRNA, under 0.1 µM; in the experiment on Target C, 0.1 to 1 µM.
Take `Cc1cn2cc(-c3ccc4c(=O)n(C5CCNCC5)cnc4c3)cc(C(F)(F)F)c2n1` [Compound 306]: the IC50 with MYB is 1 to 10 µM; in the experiment with SMN2 mRNA, under 0.1 µM; in the experiment on Target C, 1 to 10 µM.
As to `Cc1cn2cc(-c3ccc4c(=O)n(C5CCN(C)CC5)cnc4c3)ncc2n1` [Compound 308], the IC50 in the experiment with MYB lay in the range of 1 to 10 µM; in the experiment with SMN2 mRNA it was 0.1 to 1 µM; in the experiment on Target C it was 1 to 10 µM.
Consider `Cc1cn2nc(-c3ccc4c(=O)n(C5CCN(C)CC5)ccc4c3)cc(C)c2n1` [Compound 310], for which the IC50 in the experiment on MYB is 0.1 to 1 µM; in the experiment with SMN2 mRNA it was under 0.1 µM; with Target C it was 0.1 to 1 µM.
In the case of `Cc1cc(-c2cnc3c(=O)n(C4CCNCC4)cnc3c2)cc2cn(C)nc12` [Compound 311], the IC50 with MYB is 1 to 10 µM; with SMN2 mRNA, 0.1 to 1 µM; in the experiment on Target C it was 1 to 10 µM.
With `Cc1cn2nc(-c3cc(F)c4c(=O)n(C5CCNC6(CC6)C5)ncc4c3)cc(C)c2n1` (stereo not drawn) [Compound 312], the IC50 in the experiment on MYB, with SMN2 mRNA and in the experiment on Target C was under 0.1 µM each time.
Regarding `Cn1cc2cc(-c3cc(F)c4c(=O)n(C5CCNCC5)cnc4c3)cc(F)c2n1` [Compound 314], the IC50 in the experiment with MYB is 1 to 10 µM; with SMN2 mRNA, 0.1 to 1 µM; with Target C it was over 10 µM.
As to `Cn1cc2cc(-c3cc(F)c4c(=O)n(C5CCNCC5)cnc4c3)c(F)cc2n1` [Compound 315], the half-maximal inhibitory concentration (IC50) is 0.1 to 1 µM in the experiment on MYB, under 0.1 µM in the experiment on SMN2 mRNA and 1 to 10 µM with Target C.
For `Cn1cc2cc(-c3cc(F)c4c(=O)n(C5CCNCC5)cnc4c3)cc(C#N)c2n1` [Compound 316] the same measures were under 0.1 µM, under 0.1 µM and 0.1 to 1 µM.
Regarding `Cc1cn2cc(-c3cc(F)c4c(=O)n(C5CCNCC5)cnc4c3)cc(C)c2n1` [Compound 317], the IC50 was under 0.1 µM in the experiment with MYB, under 0.1 µM in the experiment on SMN2 mRNA and 0.1 to 1 µM with Target C.
Turning to `Cc1cn2nc(-c3cc(F)c4c(=O)n(C5CCNCC5)cnc4c3)cc2c(C)n1` [Compound 318], the IC50 in the experiment on MYB is under 0.1 µM; in the experiment on SMN2 mRNA, under 0.1 µM; with Target C, 0.1 to 1 µM.
As to `Cc1cn2cc(-c3cc(F)c4c(=O)n(C5CCNCC5)cnc4c3)nc2c(C)n1` [Compound 319], the concentration for half-maximal inhibition (IC50) is 0.1 to 1 µM in the experiment on MYB, under 0.1 µM with SMN2 mRNA and 1 to 10 µM in the experiment on Target C.
As to `COc1cc(-c2cc(F)c3c(=O)n(C4CCNCC4)cnc3c2)cnn1` [Compound 320], the IC50 in the experiment on MYB was over 10 µM; in the experiment on SMN2 mRNA, 1 to 10 µM; with Target C, over 10 µM.
Regarding `Cc1cn2nc(-c3cc(F)c4c(=O)n(C5CCNCC5)ccc4c3)cc(C)c2n1` [Compound 322], the IC50 with MYB, with SMN2 mRNA and with Target C was under 0.1 µM throughout.
Regarding `Cc1cn2cc(-c3cc(F)c4c(=O)n([C@H]5CCNC[C@H]5F)cnc4c3)cc(F)c2n1` [Compound 338], the IC50 is 0.1 to 1 µM with MYB, under 0.1 µM with SMN2 mRNA and 1 to 10 µM in the experiment on Target C.
For `Cc1cn2cc(-c3cc(F)c4c(=O)n(C5CCNCC5(F)F)cnc4c3)cc(F)c2n1` (stereo not drawn) [Compound 339] the same measures were over 10 µM, 0.1 to 1 µM and over 10 µM.
Take `Cc1cn2cc(-c3cc(F)c4c(=O)n(N5CCNCC5)cnc4c3)cc(F)c2n1` [Compound 340, 5-fluoro-7-{8-fluoro-2-methylimidazo[1,2-a]pyridin-6-yl}-3-(piperazin-1-yl)quinazolin-4-one]: the IC50 is under 0.1 µM in the experiment with MYB, under 0.1 µM with SMN2 mRNA and 0.1 to 1 µM in the experiment on Target C.
On to `Cc1cn2cc(-c3cc(F)c4c(=O)n(C5=CCNCC5)cnc4c3)cc(F)c2n1` [Compound 342], for which the results for the concentration for half-maximal inhibition (IC50) in the experiment on MYB, in the experiment on SMN2 mRNA and with Target C were 0.1 to 1 µM, under 0.1 µM and 0.1 to 1 µM, respectively.
For `Cc1cn2nc(-c3cc(N(C)C)c4c(=O)n(C5CCNC6(CC6)C5)cnc4c3)cc(C)c2n1` (stereo not drawn) [Compound 345], the results for the 50% inhibitory concentration (IC50) in the experiment on MYB, with SMN2 mRNA and in the experiment with Target C were over 10 µM, under 0.1 µM and over 10 µM, respectively.
Take `Cc1cn2cc(-c3cc(F)c4c(=O)n([C@H]5CCN[C@H](C)C5)cnc4c3)cc(F)c2n1` [Compound 346, trans-5-fluoro-7-(8-fluoro-2-methylimidazo[1,2-a]pyridin-6-yl)-3-(2-methylpiperidin-4-yl)quina-zolin-4(3H)-one]: the IC50 in the experiment on MYB is under 0.1 µM; in the experiment with SMN2 mRNA it was under 0.1 µM; with Target C, 0.1 to 1 µM.
For the compound `Cc1cn2cc(-c3cc(F)c4c(=O)n([C@H]5CCNC[C@@H]5O)cnc4c3)cc(F)c2n1` [Compound 347, 5-fluoro-7-{8-fluoro-2-methylimidazo[1,2-a]pyridin-6-yl}-3-[(3S,4S)-3-hydroxypiperidin-4-yl]quinazolin-4-one], the figures for the IC50 in the experiment with MYB, in the experiment on SMN2 mRNA and in the experiment on Target C were 1 to 10 µM, over 10 µM and over 10 µM, respectively.
Take `Cc1cn2cc(-c3cc(F)c4c(=O)n([C@H]5CNCC[C@@H]5O)cnc4c3)cc(F)c2n1` [Compound 348, 5-fluoro-7-{8-fluoro-2-methylimidazo[1,2-a]pyridin-6-yl}-3-[(3S,4S)-4-hydroxypiperidin-3-yl]quinazolin-4-one]: the IC50 in the experiment with MYB, in the experiment on SMN2 mRNA and with Target C was over 10 µM throughout.
With `Cc1cn2nc(-c3ccc4c(=O)n([C@H]5CCNC6(CC6)C5)cnc4c3)cc(C)c2n1` [Compound 349, 3-[(7S)-4-azaspiro[2.5]octan-7-yl]-7-{2,8-dimethylimidazo[1,2-b]pyridazin-6-yl}quinazolin-4-one], the concentration for half-maximal inhibition (IC50) in the experiment on MYB is 0.1 to 1 µM; in the experiment on SMN2 mRNA, under 0.1 µM; in the experiment on Target C, 1 to 10 µM.
For `Cc1cn2nc(-c3ccc4c(=O)n([C@@H]5CCNC6(CC6)C5)cnc4c3)cc(C)c2n1` [Compound 350, 3-[(7R)-4-azaspiro[2.5]octan-7-yl]-7-{2,8-dimethylimidazo[1,2-b]pyridazin-6-yl}quinazolin-4-one] the same measures were under 0.1 µM, under 0.1 µM and under 0.1 µM.
With `Cc1cn2nc(-c3cc(F)c4c(=O)n(C5CCNC6(CC6)C5)cnc4c3)cc(C)c2n1` (stereo not drawn) [Compound 351], the IC50 in the experiment on MYB, in the experiment on SMN2 mRNA and in the experiment on Target C was under 0.1 µM in each case.
For the compound `Cc1cn2cc(-c3cc(F)c4c(=O)n(C5CNCCC5=O)cnc4c3)cc(F)c2n1` (stereo not drawn) [Compound 352, 5-fluoro-7-{8-fluoro-2-methylimidazo[1,2-a]pyridin-6-yl}-3-(4-oxopiperidin-3-yl)quinazolin-4-one], the IC50 in the experiment on MYB, in the experiment on SMN2 mRNA and with Target C was over 10 µM throughout.
In the case of `Cc1cn2cc(-c3cc(F)c4c(=O)n(C5CCCNCC5)cnc4c3)cc(F)c2n1` (stereo not drawn) [Compound 353, 3-(azepan-4-yl)-5-fluoro-7-{8-fluoro-2-methylimidazo[1,2-a]pyridin-6-yl}quinazolin-4-one], the IC50 in the experiment with MYB was 0.1 to 1 µM; in the experiment with SMN2 mRNA, under 0.1 µM; with Target C, 1 to 10 µM.
The corresponding values for `Cc1ncc(-c2ccc3c(=O)n(C4CCNCC4)cnc3c2)cn1` [Compound 354, 7-(2-methylpyrimidin-5-yl)-3-(piperidin-4-yl)quinazolin-4(3H)-one] are 1 to 10 µM, 1 to 10 µM and 1 to 10 µM.
The corresponding values for `Cc1cn2nc(-c3cc(C)c4c(=O)n(C5CCNCC5)cnc4c3)cc(C)c2n1` [Compound 355] are under 0.1 µM, under 0.1 µM and under 0.1 µM.
Turning to `Cc1cn2nc(-c3cc(F)c4c(=O)n([C@@H]5CCNC6(CC6)C5)cnc4c3)cc(C)c2n1` [Compound 356], the IC50 in the experiment with MYB, with SMN2 mRNA and in the experiment with Target C was under 0.1 µM each time.
